Assay results published in patent publication US20220089609A1, “SUBSTITUTED QUINAZOLINONE DERIVATIVES AND THEIR USE AS POSITIVE ALLOSTERIC MODULATORS OF MGLUR4” (DOMAIN THERAPEUTICS, priority 2018, published 2022).
Counter-ions that a name gives are not always drawn.

Each molecule was assayed against T1, human mGluR4 (hmGluR4) (Homo sapiens, UniProt Q14833) (assay: Calcium assay EC50 determination, positive allosteric modulator activity on hmGluR4 transiently over-expressed in HEK-293 cells). Conditions: PAM mode with EC20 glutamate; hmGluR4 in HEK-293 cells; intracellular calcium (Fluo4AM); read-out: mGluR4 positive allosteric modulator activity, half maximal effective concentration (EC50).
T1 construct: expressed in transfected cells; host or cells: HEK-293 cells, transient co-transfection by electroporation
T1 sequence (Q14833 33-912): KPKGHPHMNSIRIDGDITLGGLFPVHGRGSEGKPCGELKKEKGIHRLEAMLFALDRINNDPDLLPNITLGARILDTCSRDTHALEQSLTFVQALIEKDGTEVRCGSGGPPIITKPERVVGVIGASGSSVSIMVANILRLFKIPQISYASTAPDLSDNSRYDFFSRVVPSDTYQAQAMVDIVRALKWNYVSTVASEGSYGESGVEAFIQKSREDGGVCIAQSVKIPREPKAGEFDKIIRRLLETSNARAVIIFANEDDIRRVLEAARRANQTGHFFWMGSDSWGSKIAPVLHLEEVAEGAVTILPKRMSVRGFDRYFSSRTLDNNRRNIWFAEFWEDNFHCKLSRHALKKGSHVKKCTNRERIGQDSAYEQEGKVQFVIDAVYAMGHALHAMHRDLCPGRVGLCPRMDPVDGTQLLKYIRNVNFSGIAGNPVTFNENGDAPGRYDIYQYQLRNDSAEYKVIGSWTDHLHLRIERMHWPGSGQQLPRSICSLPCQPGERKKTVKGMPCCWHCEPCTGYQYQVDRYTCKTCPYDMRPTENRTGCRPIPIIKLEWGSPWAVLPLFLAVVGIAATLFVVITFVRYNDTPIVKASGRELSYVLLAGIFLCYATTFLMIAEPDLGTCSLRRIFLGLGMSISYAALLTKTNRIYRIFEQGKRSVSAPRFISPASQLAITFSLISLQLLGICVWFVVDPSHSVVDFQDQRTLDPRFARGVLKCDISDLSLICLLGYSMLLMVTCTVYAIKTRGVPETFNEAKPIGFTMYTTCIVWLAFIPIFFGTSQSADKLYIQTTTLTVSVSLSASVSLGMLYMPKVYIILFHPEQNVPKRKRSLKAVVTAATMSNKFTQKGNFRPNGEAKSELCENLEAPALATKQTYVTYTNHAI
Format: cell-based
Description: Compounds are tested successively for their agonist and positive allosteric modulator activities on human mGluR4 (hmGluR4) transiently over-expressed in HEK-293 cells. Compounds exert agonist activity if, by themselves in absence of glutamate, they are able to activate hmGluR4; and they exert positive allosteric modulator activity if they increase the action of glutamate.
HEK-293 cells are maintained in Modified Eagle's Medium supplemented with 10% Foetal Calf Serum, 1% Penicillin/Streptomycin and 1% non-essential amino acids at 37° C./5% CO2.
Cells are co-transfected by electroporation with four DNA plasmids encoding hmGluR4, a chimeric G protein allowing redirection of the activation signal to intracellular calcium pathway, and glutamate transporters to decrease extracellular glutamate concentration so as to limit receptor desensitization. After transfection, cells are cultured for 24 h at 37° C./5% CO2.
Calcium Assay EC50 determination
Receptor activity is detected by changes in intracellular calcium measured using the fluorescent Ca^2+ sensitive dye, Fluo4AM (Molecular Probes).
On the day of the assay, culture medium is aspirated and replaced during 3 hours by medium without serum supplemented with 1% Glutamax, 1% Penicillin/Streptomycin and 1% non-essential amino acids. Then, cells are washed with freshly prepared buffer B (HBSS 1× (PAA), Hepes 20 mM, MgSO4-7H2O 1 mM, Na2CO3 3.3 mM, CaCl2-2H2O 1.3 mM, 0.1% BSA, Probenecid 2.5 mM) and loaded at 37° C. in 5% CO2 for 1.5 hours with buffer B containing 1 μM Fluo4AM, 0.1 mg/mL Pluronic Acid, 7 μg/mL Glutamate Pyruvate Transaminase and 2 mM sodium pyruvate. Afterwards cells are washed twice with buffer B. Then cells are detached using StemPro Accutase (Fisher Scientific), resuspended in buffer B and seeded in 384 well plate at a density of 30,000 cells per well. Addition of compounds and intracellular Ca^2+ measurements (excitation 485 nm, emission 525 nm) are performed by the fluorescence microplate reader FLIP^Tetra (Molecular Devices).
Agonist and positive allosteric modulator activities of compounds are consecutively evaluated on the same cell plate. Agonist activity is first tested during 10 minutes with the addition of compound alone on the cells. Then, cells are stimulated by an EC20 glutamate concentration and fluorescence is recorded for additional 3 minutes. EC20 glutamate concentration is the concentration giving 20% of the maximal glutamate response. Agonist or positive allosteric modulator activity(ies) are evaluated in comparison to basal signals evoked by buffer B or EC20 glutamate alone, respectively.
Work on `Cc1cnc(-c2nc3ccc(OCCCc4ccncc4)cc3c(=O)[nH]2)cn1` [Compound 13, 2-(5-methylpyrazin-2-yl)-6-[3-(4-pyridyl)propoxy]-3H-quinazolin-4-one dihydrochloride] yielded an EC50 of 1000 to 10000 nM.
`Cc1cc(O[C@@H]2CC(=O)N(C)C2)cc2c(=O)[nH]c(-c3cc4sccc4cn3)nc12` [Compound 140-R, 8-Methyl-6-[(3R)-1-methyl-5-oxo-pyrrolidin-3-yl]oxy-2-thieno[3,2-c]pyridin-6-yl-3H-quinazolin-4-one] showed an EC50 of at most 100 nM.
`Cc1cc(OCC2CCOC2)cc2c(=O)[nH]c(-c3cc4cccn4cn3)nc12` (centres unmarked) [Compound 107, 8-methyl-2-pyrrolo[1,2-c]pyrimidin-3-yl-6-(tetrahydro-furan-3-ylmethoxy)-3H-quinazolin-4-one] gave an EC50 of at most 100 nM.
`O=c1[nH]c(-c2cc3ccsc3cn2)nc2c(Cl)cc(OCCCc3ccncc3)cc12` [Compound 72, 8-Chloro-6-(3-pyridin-4-yl-propoxy)-2-thieno[2,3-c]pyridin-5-yl-3H-quinazolin-4-one hydrochloride] was tested, and the EC50 was 100 to 1000 nM.
`Cc1cc(N2CCC3(CCOCC3)CC2)nc2c(=O)[nH]c(-c3cc4ccsc4cn3)nc12` [Compound 113] showed an EC50 of 100 to 1000 nM.
`CCC(=O)N1CCC(COc2cc(C)c3nc(-c4cc5ccsc5cn4)[nH]c(=O)c3c2)CC1` [Compound 87, 8-Methyl-6-(1-propionyl-piperidin-4-ylmethoxy)-2-thieno[2,3-c]pyridin-5-yl-3H-quinazolin-4-one] showed an EC50 of 100 to 1000 nM.
Work on `Cc1cc(OC2CCC(=O)N(C)C2)cc2c(=O)[nH]c(-c3cc4ccsc4cn3)nc12` (single isomer, unassigned) [Compound 81-E1, (R or S)-8-Methyl-6-((1-methyl-6-oxopiperidin-3-yl)oxy)-2-(thieno[2,3-c]pyridin-5-yl)quinazolin-4(3H)-one] yielded an EC50 of at most 100 nM.
Molecule `Cc1cc(CN2CCN(C)CC2)cc2c(=O)[nH]c(-c3cc4ccsc4cn3)nc12` [Compound 132, 8-Methyl-6-[(4-methylpiperazin-1-yl)methyl]-2-thieno[2,3-c]pyridin-5-yl-3H-quinazolin-4-one dihydrochloride] has an EC50 of 1000 to 10000 nM.
`CCC(=O)N1CC(Oc2ccc3nc(-c4cc5ccsc5cn4)[nH]c(=O)c3c2)C1` [Compound 30, 6-(1-Propionyl-azetidin-3-yloxy)-2-thieno[2,3-c]pyridin-5-yl-3H-quinazolin-4-one] was tested, and the EC50 was 100 to 1000 nM.
`Cc1cc(N2CCC3(CC2)COC3)cc2c(=O)[nH]c(-c3cc4ccsc4cn3)nc12` [Compound 89, 8-Methyl-6-(2-oxa-7-aza-spiro[3.5]non-7-yl)-2-thieno[2,3-c]pyridin-5-yl-3H-quinazolin-4-one] was tested, and the EC50 was at most 100 nM.
With `O=c1[nH]c(-c2cccc(C(F)(F)F)n2)nc2ccc(OCCCc3ccncc3)cc12` [Compound 17, 6-[3-(4-pyridyl)propoxy]-2-[6-(trifluoromethyl)-2-pyridyl]-3H-quinazolin-4-one hydrochloride] the EC50 was at most 100 nM.
Molecule `CC(=O)N1CCC(COc2ccc3nc(-c4cc(C(F)(F)F)ccn4)[nH]c(=O)c3c2)CC1` [Compound 44, 6-(1-Acetyl-piperidin-4-ylmethoxy)-2-(4-trifluoromethyl-pyridin-2-yl)-3H-quinazolin-4-one] has an EC50 of 100 to 1000 nM.
Molecule `Cc1cc(CCN2CCCOCC2)cc2c(=O)[nH]c(-c3cnc4sccc4c3)nc12` [Compound 121, 8-Methyl-6-(2-[1,4]oxazepan-4-yl-ethyl)-2-thieno[2,3-b]pyridin-5-yl-3H-quinazolin-4-one hydrochloride] has an EC50 of 100 to 1000 nM.
`CC(C)(C)OC(=O)N1CCC(Oc2ccc3nc(-c4ccccn4)[nH]c(=O)c3c2)CC1` [Compound 39, 4-(4-Oxo-2-pyridin-2-yl-3,4-dihydro-quinazolin-6-yloxy)-piperidine-1-carboxylic acid tert-butyl ester] showed an EC50 of 1000 to 10000 nM.
In the case of `O=c1[nH]c(-c2cc3sccc3cn2)nc2ccc(OCc3ccc(Br)cc3)cc12` [Compound 24, 6-(4-Bromo-benzyloxy)-2-thieno[3,2-c]pyridin-6-yl-3H-quinazolin-4-one], the EC50 is reported as over 10000 nM.
With `Cc1cc(O[C@H]2CC(=O)N(C)C2)cc2c(=O)[nH]c(-c3cc4sccc4cn3)nc12` [Compound 140-S, 8-Methyl-6-[(3S)-1-methyl-5-oxo-pyrrolidin-3-yl]oxy-2-thieno[3,2-c]pyridin-6-yl-3H-quinazolin-4-one] the EC50 was at most 100 nM.
For `CCC(=O)N1CCC(Oc2ccc3nc(-c4cc5sccc5cn4)[nH]c(=O)c3c2)CC1` [Compound 32, 6-(1-Propionyl-piperidin-4-yloxy)-2-thieno[3,2-c]pyridin-6-yl-3H-quinazolin-4-one], the EC50 was 100 to 1000 nM.
For `O=c1[nH]c(-c2cc3cccn3cn2)nc2ccc(OCCN3CCOCC3)cc12` [Compound 33, 6-(2-Morpholin-4-yl-ethoxy)-2-pyrrolo[1,2-c]pyrimidin-3-yl-3H-quinazolin-4-one hydrochloride], the EC50 was over 10000 nM.
Work on `COCC1CCN(Cc2cc(C)c3nc(-c4cc5sccc5cn4)[nH]c(=O)c3c2)CC1` [Compound 157, 6-((4-(Methoxymethyl)piperidin-1-yl)methyl)-8-methyl-2-(thieno[3,2-c]pyridin-6-yl)quinazolin-4(3H)-one hydrochloride] yielded an EC50 of 100 to 1000 nM.
`Cc1cccc(-c2nc3ccc(OCCCc4ccncc4)cc3c(=O)[nH]2)n1` [Compound 12, 2-(6-methyl-2-pyridyl)-6-[3-(4-pyridyl)propoxy]-3H-quinazolin-4-one dihydrochloride] gave an EC50 of 100 to 1000 nM.
Work on `Cc1cc(O[C@H](C)C2CCOCC2)cc2c(=O)[nH]c(-c3cc(C(F)(F)F)ccn3)nc12` [Compound 111-R, R-8-Methyl-6-[1-(tetrahydro-pyran-4-yl)-ethoxy]-2-(4-trifluoromethyl-pyridin-2-yl)-3H-quinazolin-4-one] yielded an EC50 of 100 to 1000 nM.
Work on `Cc1cc(OCCC2COC2)cc2c(=O)[nH]c(-c3cc4ccsc4cn3)nc12` [Compound 77, 8-Methyl-6-(2-oxetan-3-yl-ethoxy)-2-thieno[2,3-c]pyridin-5-yl-3H-quinazolin-4-one] yielded an EC50 of 100 to 1000 nM.
For `O=c1[nH]c(-c2cc3sccc3cn2)nc2ccc(OCCc3cccnc3)cc12` [Compound 23, 6-(2-Pyridin-3-yl-ethoxy)-2-thieno[3,2-c]pyridin-6-yl-3H-quinazolin-4-one hydrochloride], the EC50 was 100 to 1000 nM.
In the case of `CC(=O)N1CCN(CCOc2cc(C)c3nc(-c4cc5ccsc5cn4)[nH]c(=O)c3c2)CC1` [Compound 97, 6-[2-(4-acetyl-piperazin-1-yl)-ethoxy]-8-methyl-2-thieno[2,3-c]pyridin-5-yl-3H-quinazolin-4-one hydrochloride], the EC50 is reported as 100 to 1000 nM.
Molecule `CC(=O)N1CCC(Oc2ccc3nc(-c4ccccn4)[nH]c(=O)c3c2)CC1` [Compound 41, 6-(1-Acetyl-piperidin-4-yloxy)-2-pyridin-2-yl-3H-quinazolin-4-one] has an EC50 of over 10000 nM.
`Cc1cc(OCCC2CCOCC2)cc2c(=O)[nH]c(-c3cc4ccsc4cn3)nc12` [Compound 79, 8-Methyl-6-[2-(tetrahydro-pyran-4-yl)-ethoxy]-2-thieno[2,3-c]pyridin-5-yl-3H-quinazolin-4-one] gave an EC50 of 100 to 1000 nM.
With `Cc1ccnc(-c2nc3ccc(OCCCc4ccncc4)cc3c(=O)[nH]2)c1` [Compound 11, 2-(4-methyl-2-pyridyl)-6-[3-(4-pyridyl)propoxy]-3H-quinazolin-4-one dihydrochloride] the EC50 was 100 to 1000 nM.
`Cc1cc(CN2CCOC(C)(C)C2)cc2c(=O)[nH]c(-c3cc4sccc4cn3)nc12` [Compound 153, 6-[(2,2-Dimethylmorpholin-4-yl)methyl]-8-methyl-2-thieno[3,2-c]pyridin-6-yl-3H-quinazolin-4-one hydrochloride] gave an EC50 of at most 100 nM.
`Cl.O=c1[nH]c(-c2cc3ccsc3cn2)nc2ccc(OCCCc3ccncc3)cc12` [Compound 4, hydrochloride] was tested, and the EC50 was 100 to 1000 nM.
`O=c1[nH]c(-c2cc3cccn3cn2)nc2ccc(OC3CN(c4ccncn4)C3)cc12` [Compound 27, 6-(1-Pyrimidin-4-yl-azetidin-3-yloxy)-2-pyrrolo[1,2-c]pyrimidin-3-yl-3H-quinazolin-4-one] showed an EC50 of over 10000 nM.
For `Cc1cc(CC(=O)N2CCOCC2)cc2c(=O)[nH]c(-c3cc4sccc4cn3)nc12` [Compound 126, 8-Methyl-6-(2-morpholino-2-oxoethyl)-2-(thieno[3,2-c]pyridin-6-yl)quinazolin-4(3H)-one], the EC50 was at most 100 nM.
With `O=c1[nH]c(-c2cc3ccsc3cn2)nc2ccc(OCCCc3ccncc3)c(Cl)c12` [Compound 71, 5-Chloro-6-(3-pyridin-4-yl-propoxy)-2-thieno[2,3-c]pyridin-5-yl-3H-quinazolin-4-one hydrochloride] the EC50 was over 10000 nM.
